Drawing on patent publication US11780893B2, “Kv1.3 blockers” (Zealand Pharma A/S, priority 2019, dated 2023), this text covers IC50 for 3 compounds.

Bridge positions count the residues as written; N and C are the ends. Square brackets hold non-standard residues; d marks the D form. Peptide text beside a SMILES is read from it. Nle = CCCC[C@H](N)C(=O)O

T1 sequence (P22001 whole entry): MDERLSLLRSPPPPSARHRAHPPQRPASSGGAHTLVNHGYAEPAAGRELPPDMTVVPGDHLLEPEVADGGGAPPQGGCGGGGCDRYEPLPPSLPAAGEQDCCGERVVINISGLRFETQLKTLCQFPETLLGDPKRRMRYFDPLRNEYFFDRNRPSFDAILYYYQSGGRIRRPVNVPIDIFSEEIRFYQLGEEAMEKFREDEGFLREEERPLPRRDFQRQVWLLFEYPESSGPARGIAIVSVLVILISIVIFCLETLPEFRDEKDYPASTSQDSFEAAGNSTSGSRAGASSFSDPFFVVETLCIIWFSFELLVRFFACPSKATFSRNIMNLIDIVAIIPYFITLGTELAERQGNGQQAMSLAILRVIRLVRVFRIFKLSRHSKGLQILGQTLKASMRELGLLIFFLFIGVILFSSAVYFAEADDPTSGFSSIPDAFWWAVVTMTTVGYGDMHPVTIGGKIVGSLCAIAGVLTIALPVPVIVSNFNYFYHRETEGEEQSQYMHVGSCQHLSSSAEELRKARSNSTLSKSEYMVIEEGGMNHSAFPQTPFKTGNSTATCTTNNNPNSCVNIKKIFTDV

This assay concerns the target T1, human Kv1.3 voltage-gated K+ channel (Homo sapiens, UniProt P22001).
T1 construct: host or cells: CHO-DUKX
In words: cell-based. To be noted: inhibition of thallium flux, CHO-DUKX cells with human Kv1.3; read-out: IC50.
With `CCCC[C@H](NC(=O)[C@@H]1CCCN1)C(=O)N[C@@H](CCC(=O)O)C(=O)N[C@@H](CCCC)C(=O)N[C@@H](CCCNC(=N)N)C(=O)N[C@H]1CSSC[C@@H]2NC(=O)[C@H](CCCCN)NC(=O)CNC(=O)[C@H](Cc3ccccc3)NC(=O)[C@H]([C@@H](C)CC)NC(=O)[C@H](CO)NC(=O)CNC(=O)[C@H]([C@@H](C)CC)NC(=O)[C@H](C)NC(=O)[C@H](C)NC(=O)[C@H](CC(C)C)NC(=O)[C@@H]3CSSC[C@@H](C(=O)N[C@@H](Cc4ccc(O)cc4)C(=O)N4CCC[C@H]4C(=O)N[C@@H](CCCNC(=N)N)C(=O)O)NC(=O)[C@H](CCCCN)NC(=O)[C@H](CSSC[C@H](NC(=O)[C@H](CCC(=O)O)NC(=O)[C@H](C(C)C)NC(=O)[C@H](CO)NC(=O)[C@H](C)NC(=O)[C@H](CO)NC1=O)C(=O)N[C@@H](CC(C)C)C(=O)N[C@@H](CCC(N)=O)C(=O)N[C@@H](CCCCN)C(=O)N3)NC(=O)[C@H](CCCCN)NC(=O)[C@H](CCCCN)NC(=O)[C@H](CC(N)=O)NC(=O)[C@H](CCCC)NC2=O` [Compound 140] (H-P[Nle]E[Nle]RCSASVECLQKCLAAIGSIFGKC[Nle]NKKCKCYPR-OH; disulfide 6-27, 12-32, 16-34), the half-inhibitory concentration (IC50) (as a rule, the concentration that inhibits the measured activity by half) is 3.57 nM.

For the compound `CCCC[C@H](NC(=O)[C@@H]1CCCN1)C(=O)N[C@@H](CCC(=O)O)C(=O)N[C@@H](CCCC)C(=O)N[C@@H](CCCNC(=N)N)C(=O)N[C@H]1CSSC[C@@H]2NC(=O)[C@H](CCCCN)NC(=O)CNC(=O)[C@H](Cc3ccccc3)NC(=O)[C@H]([C@@H](C)CC)NC(=O)[C@H](CO)NC(=O)CNC(=O)[C@H]([C@@H](C)CC)NC(=O)[C@H](C)NC(=O)[C@H](C)NC(=O)[C@H](CC(C)C)NC(=O)[C@@H]3CSSC[C@@H](C(=O)N[C@@H](Cc4ccc(O)cc4)C(=O)N4CCC[C@H]4C(=O)N[C@@H](CCCNC(=N)N)C(=O)O)NC(=O)[C@H](CCCCN)NC(=O)[C@H](CSSC[C@H](NC(=O)[C@H](CCC(=O)O)NC(=O)[C@H](C(C)C)NC(=O)[C@H](CO)NC(=O)[C@H](C)NC(=O)[C@H](CO)NC1=O)C(=O)N[C@@H](CCCCN)C(=O)N[C@@H](CCC(N)=O)C(=O)N1CCC[C@H]1C(=O)N3)NC(=O)[C@H](CCCCN)NC(=O)[C@H](CCCCN)NC(=O)[C@H](CC(N)=O)NC(=O)[C@H](CCCC)NC2=O` [Compound 141] (H-P[Nle]E[Nle]RCSASVECKQPCLAAIGSIFGKC[Nle]NKKCKCYPR-OH; disulfide 6-27, 12-32, 16-34), the 50% inhibitory concentration (IC50) was found to be 1.07 nM.

`CCCC[C@H](NC(=O)[C@@H]1CCCN1)C(=O)N[C@@H](CCC(=O)O)C(=O)N[C@@H](CCCC)C(=O)N[C@@H](CCCNC(=N)N)C(=O)N[C@H]1CSSC[C@@H]2NC(=O)[C@H](CCCCN)NC(=O)CNC(=O)[C@H](Cc3ccccc3)NC(=O)[C@H]([C@@H](C)CC)NC(=O)[C@H](CO)NC(=O)CNC(=O)[C@H]([C@@H](C)CC)NC(=O)[C@H](C)NC(=O)[C@H](C)NC(=O)[C@H](CC(C)C)NC(=O)[C@@H]3CSSC[C@@H](C(=O)N[C@@H](Cc4ccc(O)cc4)C(=O)N4CCC[C@H]4C(=O)N[C@@H](CCCNC(=N)N)C(=O)O)NC(=O)[C@H](CCCCN)NC(=O)[C@H](CSSC[C@H](NC(=O)[C@H](CCC(=O)O)NC(=O)[C@H](C(C)C)NC(=O)[C@H](CO)NC(=O)[C@H](C)NC(=O)[C@H](CCC(=O)O)NC1=O)C(=O)N[C@@H](CCCCN)C(=O)N[C@@H](CCC(N)=O)C(=O)N[C@@H](CCCCN)C(=O)N3)NC(=O)[C@H](CCCCN)NC(=O)[C@H](CCCCN)NC(=O)[C@H](CC(N)=O)NC(=O)[C@H](CCCC)NC2=O` [Compound 142] (H-P[Nle]E[Nle]RCEASVECKQKCLAAIGSIFGKC[Nle]NKKCKCYPR-OH; disulfide 6-27, 12-32, 16-34): the IC50 turned out to be 1.5 nM.
